Source: patent US6858591B2, “Antibiotic AA 896 analogs” (Wyeth Holdings Corporation, priority 2001, dated 2005)
Converted amounts (≈) assume the structure as drawn.

Key:
Assay in all cases: In vitro MIC, broth dilution
Format in all cases: cell-based
E. coli GC 4559 = conditions: Escherichia coli, GC4559; E. coli GC 4559; read-out: MIC
E. coli GC 4560 = conditions: Escherichia coli, GC4560; E. coli GC 4560; read-out: MIC
E. coli GC 3226 = conditions: Escherichia coli, GC3226; E. coli GC 3226; read-out: MIC
S. marcescens GC 4077 = conditions: Serratia marcescens, GC4077; S. marcescens GC 4077; read-out: MIC
C. albicans GC 3066 = conditions: Candida albicans, GC3066; C. albicans GC 3066; read-out: MIC
M. morganii GC 4531 = conditions: Morganella morganii, GC4531; M. morganii GC 4531; read-out: MIC
K. pneumoniae GC 4534 = conditions: Klebsiella pneumoniae, GC4534; K. pneumoniae GC 4534; read-out: MIC
E. cloacae GC 3783 = conditions: Enterobacter cloacae, GC3783; E. cloacae GC 3783; read-out: MIC
P. aeruginosa GC 4532 = conditions: Pseudomonas aeruginosa, GC4532; P. aeruginosa GC 4532; read-out: MIC
CNS GC 4537 = conditions: CNS GC 4537; read-out: MIC
Procedure, shortened: (§1)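 Microdilution in Mueller-Hinton II per NCCLS: drug 64-0.06 μg/ml, bacteria 5×10^5 CFU/ml. Incubation 18 hours, 35° C, ambient air; MIC defined as lowest concentration inhibiting growth.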

CNS GC 4538 = conditions: CNS GC 4538; read-out: MIC
Procedure, shortened: as §1

CNS GC 4547 = conditions: CNS GC 4547; read-out: MIC
Procedure, shortened: as §1

E. faecalis GC 2242 = conditions: Enterococcus faecalis, GC2242; E. faecalis GC 2242; read-out: MIC
Procedure, shortened: as §1

E. faecalis GC 4555 = conditions: Enterococcus faecalis, GC4555; E. faecalis GC 4555; read-out: MIC
Procedure, shortened: as §1

E. faecalis GC 842 = conditions: Enterococcus faecalis, GC842; E. faecalis GC 842; read-out: MIC
Procedure, shortened: as §1

S. aureus GC 1131 = conditions: Staphylococcus aureus, GC1131; S. aureus GC 1131; read-out: MIC
Procedure, shortened: as §1

S. aureus GC 2216 = conditions: Staphylococcus aureus, GC2216; S. aureus GC 2216; read-out: MIC
Procedure, shortened: as §1

S. aureus GC 4536 = conditions: Staphylococcus aureus, GC4536; S. aureus GC 4536; read-out: MIC
Procedure, shortened: as §1

E. coli GC 2203 = conditions: Escherichia coli, GC2203; E. coli GC 2203; read-out: MIC
P. aeruginosa GC 2214 = conditions: Pseudomonas aeruginosa, GC2214; P. aeruginosa GC 2214; read-out: MIC

MIC (E. coli GC 4559) | MIC (E. coli GC 4560) | MIC (E. coli GC 3226) | MIC (S. marcescens GC 4077) | MIC (C. albicans GC 3066) | MIC (M. morganii GC 4531) | MIC (K. pneumoniae GC 4534) | MIC (E. cloacae GC 3783) | MIC (P. aeruginosa GC 4532) | MIC (CNS GC 4537) | MIC (CNS GC 4538) | MIC (CNS GC 4547) | MIC (E. faecalis GC 2242) | MIC (E. faecalis GC 4555) | MIC (E. faecalis GC 842) | MIC (S. aureus GC 1131) | MIC (S. aureus GC 2216) | MIC (S. aureus GC 4536) | MIC (E. coli GC 2203) | MIC (P. aeruginosa GC 2214) | Compound
> 128 µg/mL | 128 µg/mL (≈ 173 µM) | > 128 µg/mL | 128 µg/mL (≈ 173 µM) | 128 µg/mL (≈ 173 µM) | 128 µg/mL (≈ 173 µM) | > 128 µg/mL | > 128 µg/mL | 128 µg/mL (≈ 173 µM) | > 128 µg/mL | > 128 µg/mL | > 128 µg/mL | 128 µg/mL (≈ 173 µM) | 128 µg/mL (≈ 173 µM) | 128 µg/mL (≈ 173 µM) | > 128 µg/mL | > 128 µg/mL | > 128 µg/mL | > 128 µg/mL | 128 µg/mL (≈ 173 µM) | COc1ccc(Cn2c(=O)ccn([C@@H]3OC([C@H](O)[C@H](NCCCNC(=O)[C@H](CC(C)C)NC(=O)OCc4ccccc4)C(=O)O)[C@@H](O)[C@H]3O)c2=O)cc1 (stereo partly drawn) [Example 52, (5S,12S)-12-[(R)-[(3S,4R,5R)-3,4-Dihydroxy-5-(3-(4-methoxybenzyl)-2,4-dioxo-3,4-dihydro-1(2H)-pyrimidinyl)tetrahydro-2-furanyl](hydroxy)methyl]-5-isobutyl-3,6-dioxo-1-phenyl-2-oxa-4,7,11-triazatridecan-13-oic acid]
> 128 µg/mL | 128 µg/mL (≈ 163 µM) | > 128 µg/mL | 128 µg/mL (≈ 163 µM) | 128 µg/mL (≈ 163 µM) | 128 µg/mL (≈ 163 µM) | > 128 µg/mL | > 128 µg/mL | 128 µg/mL (≈ 163 µM) | > 128 µg/mL | > 128 µg/mL | > 128 µg/mL | 64 µg/mL (≈ 81.4 µM) | 128 µg/mL (≈ 163 µM) | 128 µg/mL (≈ 163 µM) | > 128 µg/mL | > 128 µg/mL | > 128 µg/mL | > 128 µg/mL | 128 µg/mL (≈ 163 µM) | COc1ccc(Cn2c(=O)ccn([C@@H]3OC([C@H](O)[C@H](NCCCNC(=O)[C@@H](NC(=O)OCc4ccccc4)[C@H](C)O)C(=O)OC(C)(C)C)[C@@H](O)[C@H]3O)c2=O)cc1 (stereo partly drawn) [Example 44, tert-Butyl (5S,12S)-12-[(R)-[(3S,4R,5R)-3,4-dihydroxy-5-(3-(4-methoxybenzyl)-2,4-dioxo-3,4-dihydro-1(2H)-pyrimidinyl)tetrahydro-2-furanyl](hydroxy)methyl]-5-[(1S)-1-hydroxyethyl]-3,6-dioxo-1-phenyl-2-oxa-4,7,11-triazatridecan-13-oate]

Compound | MIC (E. coli GC 4559) | MIC (E. coli GC 4560) | MIC (E. coli GC 3226) | MIC (S. marcescens GC 4077) | MIC (C. albicans GC 3066) | MIC (M. morganii GC 4531) | MIC (K. pneumoniae GC 4534) | MIC (E. cloacae GC 3783) | MIC (P. aeruginosa GC 4532) | MIC (CNS GC 4537) | MIC (CNS GC 4538) | MIC (CNS GC 4547) | MIC (E. faecalis GC 2242) | MIC (E. faecalis GC 4555) | MIC (E. faecalis GC 842) | MIC (S. aureus GC 1131) | MIC (S. aureus GC 2216) | MIC (S. aureus GC 4536) | MIC (E. coli GC 2203) | MIC (P. aeruginosa GC 2214)
COc1ccc(Cn2c(=O)ccn([C@@H]3OC([C@H](O)[C@H](NCCCNC(=O)[C@@H](CC(C)C)NC(=O)OCc4ccccc4)C(=O)OC(C)(C)C)[C@@H](O[Si](C)(C)C(C)(C)C)[C@H]3O[Si](C)(C)C(C)(C)C)c2=O)cc1 (stereo partly drawn) [Example 56, tert-Butyl (5R,12S)-12-[(R)-[(3R,4R,5R)-3,4-bis{[tert-butyl(dimethyl)silyl]oxy}-5-(3-(4-methoxybenzyl)-2,4-dioxo-3,4-dihydro-1(2H)-pyrimidinyl)tetrahydro-2-furanyl](hydroxy)methyl]-5-isobutyl-3,6-dioxo-1-phenyl-2-oxa-4,7,11-triazatridecan-13-oate] | > 128 µg/mL | > 128 µg/mL | > 128 µg/mL | > 128 µg/mL | > 128 µg/mL | 128 µg/mL (≈ 125 µM) | > 128 µg/mL | > 128 µg/mL | 128 µg/mL (≈ 125 µM) | > 128 µg/mL | > 128 µg/mL | > 128 µg/mL | 128 µg/mL (≈ 125 µM) | > 128 µg/mL | > 128 µg/mL | > 128 µg/mL | > 128 µg/mL | > 128 µg/mL | > 128 µg/mL | 128 µg/mL (≈ 125 µM)
